Measured values from patent US5840758A, “Oxime derivatives of fenamates as inhibitors of prostaglandin biosynthesis” (Abbott Laboratories, priority 1996, dated 1998).

How the values were obtained:
PGHS-1 = conditions: in words, from literature; cited from earlier work
PGHS-2 = conditions: in words, from literature; cited from earlier work
human recombinant PGHS-1 = biological target: T1, human recombinant PGHS-1 (Homo sapiens, UniProt P23219); test: Inhibition of prostaglandin biosynthesis (PGE2 by EIA), recombinant human PGHS-1 enzyme assay; format: biochemical; conditions: 60 min preincubation, 10 μM arachidonic acid
T1 construct: made in house; host or cells: baculovirus/Sf9 insect cells (microsomes)
T1 sequence (P23219 24-599): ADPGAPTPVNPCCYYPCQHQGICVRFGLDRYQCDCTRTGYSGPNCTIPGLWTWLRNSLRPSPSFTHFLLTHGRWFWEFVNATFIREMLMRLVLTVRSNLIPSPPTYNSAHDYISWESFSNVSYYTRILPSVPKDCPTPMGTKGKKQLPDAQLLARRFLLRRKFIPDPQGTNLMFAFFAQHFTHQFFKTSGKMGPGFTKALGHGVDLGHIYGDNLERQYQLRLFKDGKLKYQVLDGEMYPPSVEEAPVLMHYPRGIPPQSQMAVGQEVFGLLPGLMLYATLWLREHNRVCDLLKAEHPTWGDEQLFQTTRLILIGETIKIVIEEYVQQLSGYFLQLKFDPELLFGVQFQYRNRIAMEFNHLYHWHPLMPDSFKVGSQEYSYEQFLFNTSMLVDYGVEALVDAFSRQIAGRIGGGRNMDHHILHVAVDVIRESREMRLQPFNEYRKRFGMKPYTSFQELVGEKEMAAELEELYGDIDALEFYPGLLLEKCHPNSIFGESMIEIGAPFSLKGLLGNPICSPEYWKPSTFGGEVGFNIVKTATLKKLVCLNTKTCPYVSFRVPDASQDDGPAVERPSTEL
Description: (§1) Inhibition of prostaglandin biosynthesis was evaluated in recombinant human PGHS-1 and PGHS-2 enzyme assays. Representative compounds dissolved in DMSO (3.3% v/v) were preincubated with microsomes from recombinant human PGHS-1 or PGHS-2 expressed in the baculovirus/Sf9 cell system (Gierse, J. K., Hauser, S. D., Creely, D. P., Koboldt, C., Rangwala, S., H., Isakson, P. C., and Seibert, K. Expression and selective inhibition of the constituitive and inducible forms of cyclooxygenase Biochem J. 1995, 305: 479.), together with the cofactors phenol (2 mM) and hematin (1 μM) for 60 minutes prior to the addition of 10 μM arachidonic acid. The reaction was allowed to run for 2.5 minutes at room temperature prior to quenching with HCl and neutralization with NaOH. PGE2 production in the presence and absence of the drug was determined by EIA analysis. The EIA was conducted in 96 well microtiter plates (Nunc Roskilde, Denmark) and optical density measured using a microplate reader (Vmax, Molecular Devices Corp., Menlo Park, Calif.). EIA reagents for prostaglandin determination were purchased from Perseptive Diagnostics, Cambridge, Mass. PGE2 levels were measured against standards prepared in the same milieu. The immunoassays were conducted as recommended by the manufacturer.

human recombinant PGHS-2 = biological target: T2, human recombinant PGHS-2 (Homo sapiens, UniProt P35354); test: Inhibition of prostaglandin biosynthesis (PGE2 by EIA), recombinant human PGHS-2 enzyme assay; format: biochemical; conditions: 60 min preincubation, 10 μM arachidonic acid
T2 construct: made in house; host or cells: baculovirus/Sf9 insect cells (microsomes)
T2 sequence (P35354 18-604): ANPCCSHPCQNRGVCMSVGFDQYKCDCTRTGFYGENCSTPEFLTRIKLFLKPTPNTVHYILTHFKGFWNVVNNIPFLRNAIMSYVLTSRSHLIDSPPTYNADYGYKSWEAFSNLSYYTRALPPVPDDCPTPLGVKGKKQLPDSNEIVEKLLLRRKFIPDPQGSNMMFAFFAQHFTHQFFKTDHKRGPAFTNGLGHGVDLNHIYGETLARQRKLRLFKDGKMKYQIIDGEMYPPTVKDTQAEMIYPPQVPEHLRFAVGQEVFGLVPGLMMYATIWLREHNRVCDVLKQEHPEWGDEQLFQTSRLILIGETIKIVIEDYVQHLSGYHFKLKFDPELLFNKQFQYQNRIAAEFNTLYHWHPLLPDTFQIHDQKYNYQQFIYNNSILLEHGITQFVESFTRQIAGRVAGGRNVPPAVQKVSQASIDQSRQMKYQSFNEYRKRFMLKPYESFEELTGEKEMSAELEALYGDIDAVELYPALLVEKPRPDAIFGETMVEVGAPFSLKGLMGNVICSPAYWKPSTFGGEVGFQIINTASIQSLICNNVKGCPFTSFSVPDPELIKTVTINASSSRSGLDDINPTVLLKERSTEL
Description: as §1

Structure (SMILES) | inhibition of PGHS-1 (PGHS-1) | inhibition of PGHS-2 (PGHS-2) | IC50 (human recombinant PGHS-1) | IC50 (human recombinant PGHS-2)
CC(C)Cc1ccc(C(C)C(=O)O)cc1 (centres unmarked) [ibuprofen] | inhibit both isozymes | inhibit both isozymes |  | 
Cc1ccc(Cl)c(Nc2ccccc2C(=O)O)c1Cl [Meclofenamic acid] | inhibit both PGHS-1 and PGHS-2 | inhibit both PGHS-1 and PGHS-2 |  | 
COc1ccc2cc([C@H](C)C(=O)O)ccc2c1 [naproxen] | inhibit both isozymes | inhibit both isozymes |  | 
Cc1ccc(Cl)c(Nc2ccccc2C=NOCC(=O)O)c1Cl [Example 1, 2-[(2,6-dichloro-3-methylphenyl)amino]benzaldehyde-O-carboxymethyl oxime] |  |  | 850 nM | 22 nM
